Assay results taken from PubChem BioAssay AID1963870 (Molecular Pharmacology Branch, DTP, NCI, 2024).

Test system: 292921-168-R-J2-PDC KRAS tumor spheroid viability
Experiment: Anticancer human tumor 292921-168-R-J2-PDC patient-derived pancreatic carcinoma cell line growth inhibition [KRAS2]
Conditions: spheroids with HUVEC and MSC; for viability, T/C: stronger effect = lower value
In short: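 KRAS-mutant tumor cells were grown as spheroids with HUVEC endothelial cells and human MSCs as stroma. Targeted agents were tested alone and with KRAS pathway inhibitors. Doses started at or near clinical Cmax, or 10 microM, descending half-log.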

[1] = curve of first compound, second compound 0.1 µM
[2] = curve of first compound, second compound 0.316 µM
[3] = curve of first compound, second compound 1 µM
[4] = curve of first compound, second compound 3.16 µM
[5] = curve of first compound, second compound 10 µM
[6] = second compound 0.1 µM, first compound 0.0316 µM
[7] = second compound 0.1 µM, first compound 0.1 µM
[8] = second compound 0.1 µM, first compound 0.316 µM
[9] = second compound 0.1 µM, first compound 1 µM
[10] = second compound 0.1 µM, first compound 3.16 µM
[11] = second compound 0.1 µM, first compound 10 µM
[12] = second compound 0.316 µM, first compound 0.0316 µM
[13] = second compound 0.316 µM, first compound 0.1 µM
[14] = second compound 0.316 µM, first compound 0.316 µM
[15] = second compound 0.316 µM, first compound 1 µM
[16] = second compound 0.316 µM, first compound 3.16 µM
[17] = second compound 0.316 µM, first compound 10 µM
[18] = second compound 1 µM, first compound 0.0316 µM
[19] = second compound 1 µM, first compound 0.1 µM
[20] = second compound 1 µM, first compound 0.316 µM
[21] = second compound 1 µM, first compound 1 µM
[22] = second compound 1 µM, first compound 3.16 µM
[23] = second compound 1 µM, first compound 10 µM
[24] = second compound 3.16 µM, first compound 0.0316 µM
[25] = second compound 3.16 µM, first compound 0.1 µM
[26] = second compound 3.16 µM, first compound 0.316 µM
[27] = second compound 3.16 µM, first compound 1 µM
[28] = second compound 3.16 µM, first compound 3.16 µM
[29] = second compound 3.16 µM, first compound 10 µM
[30] = second compound 10 µM, first compound 0.0316 µM
[31] = second compound 10 µM, first compound 0.1 µM
[32] = second compound 10 µM, first compound 0.316 µM
[33] = second compound 10 µM, first compound 1 µM
[34] = second compound 10 µM, first compound 3.16 µM
[35] = second compound 10 µM, first compound 10 µM
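Further: drug exposure lasted seven days after spheroids formed for three days.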
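Wherever viability, T/C is given: percent of DMSO vehicle control viability which is 100%.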

COc1cc(Nc2ncc3c(n2)-c2ccc(Cl)cc2C(c2c(F)cccc2OC)=NC3)ccc1C(=O)O + C=CC(=O)N1CCN(c2nc(=O)n(-c3c(C)ccnc3C(C)C)c3nc(-c4c(O)cccc4F)c(F)cc23)C(C)C1
IC50 [1]: < 31.6 nM | IC50 [2]: < 31.6 nM | IC50 [3]: < 31.6 nM | IC50 [4]: < 31.6 nM | IC50 [5]: < 31.6 nM | viability, T/C [6]: 33.5% | viability, T/C [7]: 34.2% | viability, T/C [8]: 41.3% | viability, T/C [9]: 40.8% | viability, T/C [10]: 34.8% | viability, T/C [11]: 26.4% | viability, T/C [12]: 35.9% | viability, T/C [13]: 33.3% | viability, T/C [14]: 37.4% | viability, T/C [15]: 40.2% | viability, T/C [16]: 40.3% | viability, T/C [17]: 29.9% | viability, T/C [18]: 41.8% | viability, T/C [19]: 35.6% | viability, T/C [20]: 40.1% | viability, T/C [21]: 39.4% | viability, T/C [22]: 32.3% | viability, T/C [23]: 30.6% | viability, T/C [24]: 36.8% | viability, T/C [25]: 31.5% | viability, T/C [26]: 34.8% | viability, T/C [27]: 38% | viability, T/C [28]: 35.2% | viability, T/C [29]: 29.5% | viability, T/C [30]: 22.9% | viability, T/C [31]: 30.9% | viability, T/C [32]: 35.2% | viability, T/C [33]: 34.5% | viability, T/C [34]: 31.8% | viability, T/C [35]: 30%

O=C(c1cc(Cc2n[nH]c(=O)c3ccccc23)ccc1F)N1CCN(C(=O)C2CC2)CC1 + COc1cc2nc(C)nc(NC(C)c3cc(N)cc(C(F)(F)F)c3)c2cc1OC1CCOC1
IC50 [1]: > 10000 nM | IC50 [2]: 9620 nM | IC50 [3]: 9770 nM | IC50 [4]: 6440 nM | IC50 [5]: 9860 nM | viability, T/C [6]: 111% | viability, T/C [7]: 119% | viability, T/C [8]: 108% | viability, T/C [9]: 113% | viability, T/C [10]: 99.8% | viability, T/C [11]: 52.1% | viability, T/C [12]: 111% | viability, T/C [13]: 105% | viability, T/C [14]: 98.2% | viability, T/C [15]: 102% | viability, T/C [16]: 92.1% | viability, T/C [17]: 48% | viability, T/C [18]: 130% | viability, T/C [19]: 116% | viability, T/C [20]: 118% | viability, T/C [21]: 119% | viability, T/C [22]: 88.7% | viability, T/C [23]: 49.2% | viability, T/C [24]: 86.7% | viability, T/C [25]: 82.5% | viability, T/C [26]: 76% | viability, T/C [27]: 75.7% | viability, T/C [28]: 63.2% | viability, T/C [29]: 41.6% | viability, T/C [30]: 83.8% | viability, T/C [31]: 84.3% | viability, T/C [32]: 77.9% | viability, T/C [33]: 73.5% | viability, T/C [34]: 85% | viability, T/C [35]: 49.8%

C=CC(=O)N1CCN(c2nc(OCC3CCCN3C)nc3c2CCN(c2cccc4cccc(C)c24)C3)CC1CC#N (configuration not stated)
IC50 (compound alone, run of 08/26/2021): 821 nM [middle of 5 runs] | IC50 (compound alone, run of 09/02/2021): 647 nM [middle of 5 runs]

CC1(C)CCC(CN2CCN(c3ccc(C(=O)NS(=O)(=O)c4ccc(NCC5CCOCC5)c([N+](=O)[O-])c4)c(Oc4cnc5[nH]ccc5c4)c3)CC2)=C(c2ccc(Cl)cc2)C1 + C=CC(=O)N1CCN(c2nc(OCC3CCCN3C)nc3c2CCN(c2cccc4cccc(C)c24)C3)CC1CC#N
IC50 (curve of first compound, second compound 0.0316 µM): 2040 nM | IC50 [1]: 2100 nM | IC50 [2]: 1810 nM | IC50 [3]: 430 nM | IC50 [4]: < 31.6 nM | viability, T/C (second compound 0.0316 µM, first compound 0.0316 µM): 99.8% | viability, T/C (second compound 0.0316 µM, first compound 0.1 µM): 101% | viability, T/C (second compound 0.0316 µM, first compound 0.316 µM): 96.1% | viability, T/C (second compound 0.0316 µM, first compound 1 µM): 92.5% | viability, T/C (second compound 0.0316 µM, first compound 3.16 µM): 23.8% | viability, T/C (second compound 0.0316 µM, first compound 10 µM): 4.26% | viability, T/C [6]: 98.1% | viability, T/C [7]: 103% | viability, T/C [8]: 100% | viability, T/C [9]: 96.1% | viability, T/C [10]: 24.7% | viability, T/C [11]: 4.98% | viability, T/C [12]: 88.2% | viability, T/C [13]: 98.4% | viability, T/C [14]: 83.2% | viability, T/C [15]: 90.2% | viability, T/C [16]: 12.6% | viability, T/C [17]: 4.29% | viability, T/C [18]: 58% | viability, T/C [19]: 59.7% | viability, T/C [20]: 52% | viability, T/C [21]: 35.3% | viability, T/C [22]: 2.72% | viability, T/C [23]: 2.98% | viability, T/C [24]: 0.13% | viability, T/C [25]: 0.2% | viability, T/C [26]: 0.14% | viability, T/C [27]: 0.12% | viability, T/C [28]: 0.37% | viability, T/C [29]: 0.26%
